Measured values as given in PubChem BioAssay (NCI).
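Compound exposure: 48 hours, 5 concentrations, 96-well plates. TGI denotes the concentration required for complete inhibition of growth.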

Experiments:
Experiment in all cases: DTP human tumour cell line panel, 48 h
[1] = tested on: 786-0 renal
[2] = tested on: A498 renal
[3] = tested on: A549 NSCLC
[4] = tested on: ACHN renal
[5] = tested on: CAKI-1 renal
[6] = tested on: CCRF-CEM leukemia
[7] = tested on: COLO 205 colon
[8] = tested on: DLD-1 colon
[9] = tested on: DMS 114 small cell lung
[10] = tested on: DMS 273 small cell lung
[11] = tested on: EKVX NSCLC
[12] = tested on: HCC-2998 colon
[13] = tested on: HCT-116 colon
[14] = tested on: HCT-15 colon
[15] = tested on: HL-60(TB) leukemia
[16] = tested on: HOP-18 NSCLC
[17] = tested on: HOP-62 NSCLC
[18] = tested on: HOP-92 NSCLC
[19] = tested on: HT29 colon
[20] = tested on: IGROV1 ovarian
[21] = tested on: K-562 leukemia
[22] = tested on: KM12 colon
[23] = tested on: KM20L2 colon
[24] = tested on: LOX IMVI melanoma
[25] = tested on: LXFL 529 NSCLC
[26] = tested on: M14 melanoma
[27] = tested on: M19-MEL melanoma
[28] = tested on: MALME-3M melanoma
[29] = tested on: MOLT-4 leukemia
[30] = tested on: NCI-H226 lung
[31] = tested on: NCI-H23 lung
[32] = tested on: NCI-H460 lung
[33] = tested on: NCI-H522 lung
[34] = tested on: OVCAR-3 ovarian
[35] = tested on: OVCAR-4 ovarian
[36] = tested on: OVCAR-5 ovarian
[37] = tested on: OVCAR-8 ovarian
[38] = tested on: RPMI-8226 leukemia
[39] = tested on: RXF 393 renal
[40] = tested on: SF-268 CNS
[41] = tested on: SF-295 CNS
[42] = tested on: SF-539 CNS
[43] = tested on: SK-MEL-2 melanoma
[44] = tested on: SK-MEL-28 melanoma
[45] = tested on: SK-MEL-5 melanoma
[46] = tested on: SK-OV-3 ovarian
[47] = tested on: SN12C renal
[48] = tested on: SNB-19 CNS
[49] = tested on: SNB-75 CNS
[50] = tested on: SNB-78 CNS
[51] = tested on: SR leukemia
[52] = tested on: SW-620 colon
[53] = tested on: TK-10 renal
[54] = tested on: U251 CNS
[55] = tested on: UACC-257 melanoma
[56] = tested on: UACC-62 melanoma
[57] = tested on: UO-31 renal
[58] = tested on: XF 498 CNS

With `COCCCCCC(=O)CP(=O)(OC)OC` as the molecule, how does the TGI [1] read?
The TGI was > 100 µM.

And the TGI [2]?
The TGI was > 100 µM.

What about the TGI [3] of the same molecule?
Its TGI is > 100 µM.

What about the TGI [4] of the same molecule?
The TGI was > 100 µM.

And the TGI [5]?
Its TGI is > 100 µM.

And the TGI [6]?
The TGI was > 100 µM.

What about the TGI [7] of the same molecule?
Its TGI is > 100 µM.

And the TGI [8]?
The TGI was > 100 µM.

What about the TGI [9] of the same molecule?
Its TGI is > 100 µM.

What about the TGI [10] of the same molecule?
Its TGI is > 100 µM.

And the TGI [11]?
Its TGI is > 100 µM.

What about the TGI [12] of the same molecule?
Its TGI is > 100 µM.

What about the TGI [13] of the same molecule?
The TGI was > 100 µM.

What about the TGI [14] of the same molecule?
The TGI was > 100 µM.

What about the TGI [15] of the same molecule?
Its TGI is > 100 µM.

And the TGI [16]?
The TGI was > 100 µM.

And the TGI [17]?
Its TGI is > 100 µM.

And the TGI [18]?
The TGI was > 100 µM.

And the TGI [19]?
The TGI was > 100 µM.

What about the TGI [20] of the same molecule?
The TGI was > 100 µM.

What about the TGI [21] of the same molecule?
The TGI was > 100 µM.

And the TGI [22]?
Its TGI is > 100 µM.

And the TGI [23]?
The TGI was > 100 µM.

What about the TGI [24] of the same molecule?
Its TGI is > 100 µM.

What about the TGI [25] of the same molecule?
The TGI was > 100 µM.

And the TGI [26]?
The TGI was > 100 µM.

What about the TGI [27] of the same molecule?
The TGI was > 100 µM.

And the TGI [28]?
The TGI was > 100 µM.

What about the TGI [29] of the same molecule?
The TGI was > 100 µM.

What about the TGI [30] of the same molecule?
The TGI was > 100 µM.

And the TGI [31]?
The TGI was > 100 µM.

And the TGI [32]?
Its TGI is > 100 µM.

And the TGI [33]?
Its TGI is > 100 µM.

And the TGI [34]?
Its TGI is > 100 µM.

And the TGI [35]?
The TGI was > 100 µM.

What about the TGI [36] of the same molecule?
Its TGI is > 100 µM.

What about the TGI [37] of the same molecule?
Its TGI is > 100 µM.

What about the TGI [38] of the same molecule?
Its TGI is > 100 µM.

What about the TGI [39] of the same molecule?
Its TGI is > 100 µM.

What about the TGI [40] of the same molecule?
Its TGI is > 100 µM.

And the TGI [41]?
The TGI was > 100 µM.

What about the TGI [42] of the same molecule?
The TGI was > 100 µM.

And the TGI [43]?
Its TGI is > 100 µM.

And the TGI [44]?
The TGI was > 100 µM.

What about the TGI [45] of the same molecule?
Its TGI is > 100 µM.

What about the TGI [46] of the same molecule?
The TGI was > 100 µM.

And the TGI [47]?
Its TGI is > 100 µM.

And the TGI [48]?
Its TGI is > 100 µM.

What about the TGI [49] of the same molecule?
Its TGI is > 100 µM.

And the TGI [50]?
The TGI was > 100 µM.

What about the TGI [51] of the same molecule?
The TGI was > 100 µM.

And the TGI [52]?
The TGI was > 100 µM.

And the TGI [53]?
The TGI was > 100 µM.

And the TGI [54]?
The TGI was > 100 µM.

And the TGI [55]?
The TGI was > 100 µM.

And the TGI [56]?
Its TGI is > 100 µM.

What about the TGI [57] of the same molecule?
The TGI was > 100 µM.

And the TGI [58]?
Its TGI is > 100 µM.

For `O=C(/C=C/c1cccc([N+](=O)[O-])c1)c1cccnc1`, which TGI [1] is on record?
The TGI was 30.5 µM.

And the TGI [2]?
Its TGI is > 62.9 µM.

What about the TGI [3] of the same molecule?
The TGI was > 100 µM.

And the TGI [4]?
The TGI was > 100 µM.

And the TGI [5]?
Its TGI is > 90.8 µM.

And the TGI [6]?
The TGI was 59.2 µM.

What about the TGI [7] of the same molecule?
The TGI was > 87.1 µM.

And the TGI [8]?
Its TGI is 52.2 µM.

And the TGI [9]?
Its TGI is 52.9 µM.

What about the TGI [10] of the same molecule?
The TGI was 69.6 µM.

And the TGI [11]?
Its TGI is > 100 µM.

What about the TGI [12] of the same molecule?
The TGI was > 66.1 µM.

And the TGI [13]?
Its TGI is 33.3 µM.

And the TGI [14]?
Its TGI is > 100 µM.

And the TGI [15]?
The TGI was 48.3 µM.

What about the TGI [16] of the same molecule?
The TGI was > 31.2 µM.

And the TGI [17]?
The TGI was > 100 µM.

And the TGI [18]?
Its TGI is > 100 µM.

And the TGI [19]?
The TGI was 42.9 µM.

What about the TGI [20] of the same molecule?
Its TGI is 70.4 µM.

And the TGI [21]?
The TGI was > 78.5 µM.

What about the TGI [22] of the same molecule?
Its TGI is 43.3 µM.

What about the TGI [23] of the same molecule?
Its TGI is > 67.8 µM.

And the TGI [24]?
The TGI was 40.1 µM.

What about the TGI [25] of the same molecule?
Its TGI is 43 µM.

And the TGI [26]?
Its TGI is 19.6 µM.

And the TGI [27]?
The TGI was > 67.9 µM.

And the TGI [28]?
Its TGI is > 100 µM.

What about the TGI [29] of the same molecule?
The TGI was 63.5 µM.

What about the TGI [30] of the same molecule?
Its TGI is > 100 µM.

What about the TGI [31] of the same molecule?
Its TGI is 44.8 µM.

And the TGI [32]?
Its TGI is > 100 µM.

And the TGI [33]?
Its TGI is 25.3 µM.

And the TGI [34]?
Its TGI is 68.8 µM.

And the TGI [35]?
Its TGI is > 100 µM.

What about the TGI [36] of the same molecule?
Its TGI is > 100 µM.

What about the TGI [37] of the same molecule?
Its TGI is > 100 µM.

What about the TGI [38] of the same molecule?
Its TGI is 44.8 µM.

What about the TGI [39] of the same molecule?
Its TGI is 34.4 µM.

What about the TGI [40] of the same molecule?
The TGI was > 86.4 µM.

What about the TGI [41] of the same molecule?
Its TGI is > 100 µM.

What about the TGI [42] of the same molecule?
The TGI was 48.3 µM.

And the TGI [43]?
Its TGI is > 100 µM.

What about the TGI [44] of the same molecule?
Its TGI is 60.8 µM.

What about the TGI [45] of the same molecule?
The TGI was 22.3 µM.

What about the TGI [46] of the same molecule?
The TGI was > 100 µM.

And the TGI [47]?
The TGI was > 62.9 µM.

What about the TGI [48] of the same molecule?
The TGI was > 94.7 µM.

What about the TGI [49] of the same molecule?
Its TGI is > 91.5 µM.

What about the TGI [50] of the same molecule?
The TGI was > 94.2 µM.

What about the TGI [51] of the same molecule?
Its TGI is 62.5 µM.

What about the TGI [52] of the same molecule?
The TGI was 37.5 µM.

And the TGI [53]?
The TGI was > 100 µM.

What about the TGI [54] of the same molecule?
The TGI was 56.1 µM.

What about the TGI [55] of the same molecule?
Its TGI is 97.7 µM.

What about the TGI [56] of the same molecule?
Its TGI is > 82.4 µM.

What about the TGI [57] of the same molecule?
The TGI was > 70.7 µM.

And the TGI [58]?
The TGI was > 81.1 µM.
